Where two headings read alike, the source gives them in different places.
How the values were obtained:
[1] = test system: HBV (HepG2.117 cell line, inducibly HBV producing); assay: Anti-HBV activity: intracellular HBV DNA by real-time PCR in HepG2.117 cells after 3 days of treatment; type: cell-based, hepatitis B virus
Procedure, shortened: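 Antiviral effect is expressed through intracellular HBV DNA levels, determined by real-time PCR with a virus-specific probe. These levels were measured after 3 days of treatment with compound dilutions, in HepG2.117 cells induced to replicate HBV.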

in vitro = type: cell-based; conditions: human, HepG2 or HepG2.117 cells, mean value
Procedure, shortened: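 Luminescent ATP quantitation served as the viability endpoint following a 3- or 4-day incubation with test compounds.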

[2] = Hepatitis B virus, HepG2.117, 72 h, HepG2.117 cells, intracellular HBV DNA by real-time PCR, 3 days of treatment, mean value; read-out: EC50 (μM, mean value)
[3] = ATPlite, 3-days incubation (not marked with *)
[4] = Hepatitis B virus, HepG2.117, 72 h, HepG2.117 cells, 3 days of treatment, intracellular HBV DNA by real-time PCR; mean value; read-out: EC50 (μM, mean value)
[5] = 3-days incubation (unmarked values), ATPlite viability

SMILES | EC50 [1, 2] [µM] | CC50 at 3 days (in vitro; [3]) [µM] | EC50 [1, 4] [µM] | CC50 at 3 days (in vitro; [5]) [µM]
CNC(=O)c1ccc(-n2c(NC(C)C)nc3c(c2=O)C[C@@H](C)N(C(=O)c2ccc(Cl)c(OC(F)(F)F)c2)C3)cc1 [Compound C635] | 0.07 | > 50 |  | 
CNC(=O)c1noc2cc(-n3c(NC(C)C)nc4c(c3=O)C[C@@H](C)N(C(=O)c3ccc(Cl)c(Cl)c3)C4)ccc12 [Compound C638] | 0.14 | > 50 |  | 
CNC(=O)[C@H]1CC[C@H](n2c(N[C@@H](C)c3ccc(C(F)(F)F)cc3)nc3c(c2=O)C[C@@H](C)N(C(=O)c2ccc(Cl)c(Cl)c2)C3)CC1 [Compound C640] | 0.07 | 5.2 |  | 
CNC(=O)c1ccc(-n2c(NC(C)C)nc3c(c2=O)C[C@@H](C)N(C(=O)c2ccc(F)c(C#N)c2)C3)cc1 [Compound C641] | 1.99 | > 50 |  | 
CNC(=O)c1ccc(-n2c(NC(C)C)nc3c(c2=O)C[C@@H](C)N(C(=O)c2ccc(Cl)c(C(F)(F)F)c2)C3)cc1Cl [Compound C642] | 0.04 | > 50 |  | 
CNC(=O)c1ccc(-n2c(NC(C)C)nc3c(c2=O)C[C@@H](C)N(C(=O)c2ccc(Cl)c(C(F)(F)F)c2)C3)c(OC)c1 [Compound C643] | 0.05 | > 50 |  | 
CNC(=O)[C@H]1CC[C@@H](n2c(N[C@@H](C)c3ccc(C(F)(F)F)cc3)nc3c(c2=O)C[C@@H](C)N(C(=O)c2ccc(Cl)c(Cl)c2)C3)CC1 [Compound C644] | 0.23 | 7.5 |  | 
CNC(=O)c1cc(-n2c(NC(C)C)nc3c(c2=O)C[C@@H](C)N(C(=O)c2ccc(Cl)c(C(F)(F)F)c2)C3)n(C)n1 [Compound C645] | 0.04 | > 50 |  | 
CNC(=O)c1cc(-n2c(NC(C)C)nc3c(c2=O)C[C@@H](C)N(C(=O)c2cccc(C(F)(F)F)c2)C3)n(C)n1 [Compound C646] | 1.62 | > 50 |  | 
CNC(=O)c1ccc(-n2c(NC(C)C)nc3c(c2=O)C[C@@H](C)N(C(=O)c2ccc(Cl)cc2C(F)(F)F)C3)cc1 [Compound C648] | 0.22 | > 50 |  | 
CNC(=O)c1ccc(-n2c(N[C@@H](C)c3ccc(F)cc3)nc3c(c2=O)C[C@@H](C)N(C(=O)c2ccc(Cl)c(C(F)(F)F)c2)C3)cc1 [Compound C651] | 0.05 | 8.8 |  | 
CNC(=O)c1cc(-n2c(O)nc3c(c2=O)C[C@@H](C)N(C(=O)c2ccc(Cl)c(C(F)(F)F)c2)C3)n(C)n1 [Compound C653] | > 2.5 | > 50 |  | 
CC(C)Nc1nc2c(c(=O)n1-c1ccc(C(=O)NC3CC3)cc1)C[C@@H](C)N(C(=O)c1ccc(Cl)c(C(F)(F)F)c1)C2 [Compound C654] | 0.03 | > 50 |  | 
CNC(=O)c1ccc(-n2c(N[C@@H](C)c3ccc(C(F)(F)F)cc3)nc3c(c2=O)C[C@@H](C)N(C(=O)c2ccc(Cl)c(Cl)c2)C3)nc1 [Compound C655] | 0.08 | 9.1 |  | 
CC(C)Nc1nc2c(c(=O)n1-c1ccnc(Cl)c1)C[C@@H](C)N(C(=O)c1ccc(Cl)c(Cl)c1)C2 [Compound C656] | 0.26 | > 50 |  | 
CNC(=O)c1cc(-n2c(N[C@@H](C)c3ccc(F)cc3)nc3c(c2=O)C[C@@H](C)N(C(=O)c2ccc(Cl)c(C(F)(F)F)c2)C3)n(C)n1 [Compound C658] | 0.07 | 32.2 |  | 
CNC(=O)c1ccc(-n2c(NC(C)C)nc3c(c2=O)C[C@@H](C)N(C(=O)c2ccc(Cl)c(C(F)(F)F)c2)C3)c(C2CC2)c1 [Compound C661] | 0.07 | 25 |  | 
CNC(=O)c1ccc(-n2c(NC3(c4ccccc4)CC3)nc3c(c2=O)C[C@@H](C)N(C(=O)c2ccc(Cl)c(Cl)c2)C3)cc1 [Compound C662] | 0.16 | 30.5 |  | 
CNC(=O)c1cc(-n2c(NC(C)C)nc3c(c2=O)C[C@@H](C)N(C(=O)c2ccc(Cl)c(C(F)(F)F)c2)C3)nn1C [Compound C668] | 0.01 | > 50 |  | 
COC(=O)c1ccc(-n2c(NC(C)CCCCO)nc3c(c2=O)C[C@@H](C)N(C(=O)c2ccc(Cl)c(Cl)c2)C3)cc1OC (stereo partly drawn) [Compound C670] | 0.37 | > 50 |  | 

SMILES | EC50 [1, 2] [µM] | CC50 at 3 days (in vitro; [3]) [µM] | EC50 [1, 4] [µM] | CC50 at 3 days (in vitro; [5]) [µM]
CNC(=O)c1ncc(-n2c(NC(C)C)nc3c(c2=O)C[C@@H](C)N(C(=O)c2ccc(Cl)c(C(F)(F)F)c2)C3)n1C [Compound C671] | 0.05 | > 50 |  | 
CNC(=O)c1cc(-n2c(NC(C)C)nc3c(c2=O)C[C@@H](C)N(C(=O)c2ccc(Cl)c(C(F)F)c2)C3)n(C)n1 [Compound C672] | 0.09 | > 50 |  | 
CNC(=O)c1ccc(-n2c(NC(C)C)nc3c(c2=O)C[C@@H](C)N(C(=O)c2cc(Cl)c(Cl)cn2)C3)cc1 [Compound C674] | 2.04 | > 50 |  | 
CNC(=O)c1ccc(-n2c(NC(C)C)nc3c(c2=O)C[C@@H](C)N(C(=O)c2cnc4ccccc4n2)C3)cc1 [Compound C675] | 1.6 | > 50 |  | 
CNC(=O)c1ccc(-n2c(NC(C)C)nc3c(c2=O)C[C@@H](C)N(C(=O)c2ccc(Cl)c(OC(F)F)c2)C3)cc1 [Compound C679] | 0.21 | > 50 |  | 
CC(C)Nc1nc2c(c(=O)n1-c1ccc(C(=O)NC3CC3)cc1)C[C@@H](C)N(C(=O)c1ccc(Cl)c(C(F)F)c1)C2 [Compound C681] | 0.04 | > 50 |  | 
CC(C)Nc1nc2c(c(=O)n1-c1ccc(C(=O)N3CCOCC3)cc1)C[C@@H](C)N(C(=O)c1ccc(Cl)c(C(F)F)c1)C2 [Compound C682] | 0.12 | > 50 |  | 
CNC(=O)c1ccc(-n2c(NC(C)C)nc3c(c2=O)C[C@@H](C)N(C(=O)c2ccc(Cl)c(C(F)(F)F)c2)C3)nn1 [Compound C684] | 0.06 | > 50 |  | 
CNC(=O)c1ccc(-n2c(NC(C)C)nc3c(c2=O)C[C@@H](C)N(C(=O)c2ccc(Cl)c(C#N)c2)C3)cc1 [Compound C686] | 0.2 | > 50 |  | 
CNC(=O)c1cc(-n2c(NC(C)C)nc3c(c2=O)C[C@@H](C)N(C(=O)c2ccc(Cl)c(C(F)(F)F)c2)C3)[nH]n1 [Compound C687] | 0.02 | > 50 |  | 
CNC(=O)c1cc(Cl)c(-n2c(NC(C)C)nc3c(c2=O)C[C@@H](C)N(C(=O)c2ccc(Cl)c(C(F)(F)F)c2)C3)c(Cl)c1 [Compound C688] | 0.04 | 29.3 |  | 
COc1ccc(CN(c2nc3c(c(=O)n2-c2ccc(Br)cc2)C[C@@H](C)N(C(=O)c2ccc(Cl)c(Cl)c2)C3)C(C)C)c(OC)c1 [Compound C691] | 2.45 | > 50 |  | 
CNC(=O)c1n[nH]c(-n2c(NC(C)C)nc3c(c2=O)C[C@@H](C)N(C(=O)c2ccc(Cl)c(Cl)c2)C3)c1Cl [Compound C692] | 0.07 | > 50 |  | 
CNC(=O)c1n[nH]c(-n2c(NC(C)C)nc3c(c2=O)C[C@@H](C)N(C(=O)c2ccc(Cl)c(Cl)c2)C3)c1C [Compound C693] | 0.11 | > 50 |  | 
CC(C)NC(=O)c1cnc(-n2c(NC(C)C)nc3c(c2=O)C[C@@H](C)N(C(=O)c2ccc(Cl)c(C(F)(F)F)c2)C3)cn1 [Compound C694] |  |  | 0.05 | > 50
CNC(=O)c1cnc(-n2c(NC(C)C)nc3c(c2=O)C[C@@H](C)N(C(=O)c2ccc(Cl)c(C(F)(F)F)c2)C3)cn1 [Compound C695] |  |  | 0.04 | > 50
CNC(=O)c1ccc(-n2c(NC(C)C)nc3c(c2=O)C[C@@H](C)N(C(=O)c2ccc(Cl)c(C(F)(F)F)c2)C3)nc1 [Compound C698] |  |  | 0.02 | > 50
CNC(=O)c1ccc(-n2c(N[C@@H](C)C3CC3)nc3c(c2=O)C[C@@H](C)N(C(=O)c2ccc(Cl)c(C(F)F)c2)C3)cc1 [Compound C699, 4-((R)-7-(4-chloro-3-(difluoromethyl)benzoyl)-2-(((S)-1-cyclopropylethyl)amino)-6-methyl-4-oxo-5,6,7,8-tetrahydropyrido[3,4-d]pyrimidin-3(4H)-yl)-N-methylbenzamide] |  |  | 0.04 | > 50
CC(C)NC(=O)c1ncc(-n2c(NC(C)C)nc3c(c2=O)C[C@@H](C)N(C(=O)c2ccc(Cl)c(C(F)(F)F)c2)C3)n1C [Compound C703] |  |  | 0.09 | > 50
